Source: patent US20110152313A1 (MACQUARIE UNIVERSITY, priority 2008, published 2011)

What was measured:
Test in all cases: kinase binding screen (kinase-tagged T7 phage, qPCR), % Ctrl
[1] = molecular target: T1, PLK4 (Homo sapiens, UniProt O00444)
T1 sequence (O00444 1-970): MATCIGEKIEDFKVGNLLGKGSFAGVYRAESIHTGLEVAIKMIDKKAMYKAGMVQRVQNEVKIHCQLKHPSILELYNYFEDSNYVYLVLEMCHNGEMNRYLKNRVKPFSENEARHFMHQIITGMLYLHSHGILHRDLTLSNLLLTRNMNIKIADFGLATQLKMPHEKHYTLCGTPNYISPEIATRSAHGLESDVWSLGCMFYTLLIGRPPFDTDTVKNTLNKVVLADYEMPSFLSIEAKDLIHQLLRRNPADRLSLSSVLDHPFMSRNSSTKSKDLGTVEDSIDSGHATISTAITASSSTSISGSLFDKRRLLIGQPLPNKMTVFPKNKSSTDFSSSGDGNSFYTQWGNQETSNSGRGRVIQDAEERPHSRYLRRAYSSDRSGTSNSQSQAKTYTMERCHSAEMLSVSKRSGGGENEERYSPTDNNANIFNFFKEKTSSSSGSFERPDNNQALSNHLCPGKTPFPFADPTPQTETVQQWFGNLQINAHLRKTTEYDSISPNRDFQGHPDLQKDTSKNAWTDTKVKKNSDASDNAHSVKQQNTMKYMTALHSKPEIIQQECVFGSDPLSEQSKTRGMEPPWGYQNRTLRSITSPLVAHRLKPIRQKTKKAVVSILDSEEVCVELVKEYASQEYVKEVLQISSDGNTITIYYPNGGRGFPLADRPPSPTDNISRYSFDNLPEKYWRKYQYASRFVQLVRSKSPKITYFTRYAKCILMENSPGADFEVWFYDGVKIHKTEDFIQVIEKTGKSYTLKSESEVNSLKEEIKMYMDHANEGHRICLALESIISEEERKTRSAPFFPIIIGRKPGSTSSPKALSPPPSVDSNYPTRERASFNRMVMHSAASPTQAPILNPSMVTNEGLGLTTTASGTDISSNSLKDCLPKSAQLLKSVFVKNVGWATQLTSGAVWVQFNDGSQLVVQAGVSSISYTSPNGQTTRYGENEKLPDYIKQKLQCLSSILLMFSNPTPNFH
Outline: (§1)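 Competition binding: kinase-tagged T7 phage (grown in BL21-derived E. coli, lysed at 32° C) incubated with immobilized ligand on biotin-blocked beads plus test compound; bound kinase in eluates quantified by qPCR. Compounds tested at a single set concentration, added from 40× DMSO stocks.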

[2] = molecular target: T2, RPS6KA6(Kin.Dom.2-C-terminal) (Homo sapiens, UniProt Q9UK32)
T2 sequence (Q9UK32 426-683 limits assumed): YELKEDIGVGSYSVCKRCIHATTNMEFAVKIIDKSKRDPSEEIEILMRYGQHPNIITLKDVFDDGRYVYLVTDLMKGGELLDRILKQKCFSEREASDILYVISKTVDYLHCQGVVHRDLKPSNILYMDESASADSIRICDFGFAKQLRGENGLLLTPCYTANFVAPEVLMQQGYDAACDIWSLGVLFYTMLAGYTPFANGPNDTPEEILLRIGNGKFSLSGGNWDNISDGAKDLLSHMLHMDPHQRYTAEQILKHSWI
Outline: as §1

[3] = molecular target: T3, CDKL5 (Homo sapiens, UniProt O76039)
T3 sequence (O76039 1-960): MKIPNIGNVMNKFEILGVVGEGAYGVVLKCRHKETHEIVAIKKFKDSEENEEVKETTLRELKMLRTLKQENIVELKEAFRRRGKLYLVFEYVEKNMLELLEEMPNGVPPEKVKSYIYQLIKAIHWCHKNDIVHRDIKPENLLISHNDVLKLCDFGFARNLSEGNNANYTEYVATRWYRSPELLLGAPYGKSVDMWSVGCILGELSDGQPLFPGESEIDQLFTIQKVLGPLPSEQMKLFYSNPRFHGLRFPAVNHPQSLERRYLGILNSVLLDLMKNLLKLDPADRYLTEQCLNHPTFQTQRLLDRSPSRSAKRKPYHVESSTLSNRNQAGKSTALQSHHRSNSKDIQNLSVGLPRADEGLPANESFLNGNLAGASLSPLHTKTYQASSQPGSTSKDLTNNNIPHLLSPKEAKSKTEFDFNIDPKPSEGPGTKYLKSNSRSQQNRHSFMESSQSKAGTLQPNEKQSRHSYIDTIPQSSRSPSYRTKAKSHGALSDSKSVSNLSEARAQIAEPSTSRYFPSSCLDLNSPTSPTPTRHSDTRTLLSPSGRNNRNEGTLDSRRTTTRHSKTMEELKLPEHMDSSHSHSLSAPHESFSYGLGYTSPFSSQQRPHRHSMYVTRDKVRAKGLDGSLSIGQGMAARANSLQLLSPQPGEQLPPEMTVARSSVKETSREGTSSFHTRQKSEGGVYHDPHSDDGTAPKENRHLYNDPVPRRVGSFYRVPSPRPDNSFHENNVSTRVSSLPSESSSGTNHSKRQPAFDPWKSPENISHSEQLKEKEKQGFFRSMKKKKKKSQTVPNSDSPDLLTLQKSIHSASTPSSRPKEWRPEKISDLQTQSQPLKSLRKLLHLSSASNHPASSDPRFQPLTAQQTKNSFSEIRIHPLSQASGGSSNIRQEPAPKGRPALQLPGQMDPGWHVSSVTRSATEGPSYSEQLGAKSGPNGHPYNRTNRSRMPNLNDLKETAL
Outline: as §1

remaining activity at 10 µM ([1]; 10 μM) | remaining activity at 10 µM ([2]; 10 μM) | remaining activity at 10 µM ([3]; 10 μM) | Compound | remaining activity at 1 µM [1] | remaining activity at 1 µM [2] | remaining activity at 1 µM [3]
 |  |  | Nc1nc2c(-c3cnc4ccccc4c3)nccc2[nH]1 [drawing 36, 4-(quinolin-3-yl)-1H-imidazo[4,5-c]pyridin-2-amine] | 100% | 100% | 54%
65% | 34% | 40% | Nc1nc2c(-c3cc(Br)c(Br)[nH]3)nccc2[nH]1 [Ageladine A, ageladine A, reference compound] | 81% | 51% | 54%
 |  |  | Nc1nc2c(-c3ccccn3)nccc2[nH]1 [drawing 35, 4-(pyrid-2-yl)-1H-imidazo[4,5-c]pyridin-2-amine] | 55% | 49% | 50%
